Reference: PMC7606612, “Identification of HMGA2 inhibitors by AlphaScreen-based ultra-high-throughput screening assays” (Scientific Reports, 2020)
Where “and” joins values, the source holds several entries; their conditions need not be identical. Identical values can stand only once.

Experiments:
[1] = tested on: anaplastic thyroid carcinoma cell line 8505c; experiment: ID2 mRNA expression in 8505c cells; format: cell-based, human; conditions: 200 and 400 µM
Excerpt: The role of HMGA1 and HMGA2 in regulating ID2 transcription was confirmed by analyzing its expression in mouse embryonic fibroblasts (MEFs) knock-out for HMGA1, HMGA2, and the A1/A2 double mutant, respectively. […] We identified two AT-rich regions, hereafter indicated as “region A” and “region B”, in the human ID2 promoter, containing the HMGA2 consensus sequence[26] (Table S2) for our ChIP experiments. Due to availability, the high proliferation rate, and the expression of HMGA proteins, the anaplastic thyroid carcinoma cell line 8505c was used.
The single-cell suspension was obtained by mechanical disaggregation of the spheres and RNA was extracted 48 h later, by using Direct-zol RNA MiniPrep (Zymo Research). One μg of RNA was retrotranscribed, by using QuantiTect® Reverse Transcription Kit (Qiagen) and qRT-PCR was performed as described. The 2^–ΔΔCt formula was used to calculate the differential gene expression.

HMGA2-DNA interactions [2] = target: T1, HMGA2-DNA interactions (Mus musculus, UniProt P52927); experiment: LANCE TR-FRET secondary assay of HMGA2 binding to FL814; parameters: species or system mammalian; concentration or dose not given beside the values; conditions: cherry picked primary hits
T1 construct: made in house
T1 sequence (P52927 2-108 limits assumed): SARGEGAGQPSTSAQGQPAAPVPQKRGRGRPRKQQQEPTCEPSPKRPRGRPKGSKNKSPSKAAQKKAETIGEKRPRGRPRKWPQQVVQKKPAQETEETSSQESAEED
Method: In this study, we also developed a LANCE time-resolved fluorescence energy transfer (TR-FRET) assay as a secondary assay for our screening. The His-tagged HMGA2 and biotinylated oligomer FL814 were linked to Europium-labeled anti-6 × His antibody and APC-labeled streptavidin, respectively. A series of DNA binding studies were performed to determine the optimal conditions for the secondary Assay (Fig. S2). After these experiments, 12.5 nM of FL814 and 62.5 nM of HMGA2 were chosen for the assay, which is the same for the primary assay. The assay tolerated up to 0.25% DMSO without any significant change in signal (Fig. S2c). For a counterscreen assay to exclude those compounds that nonspecifically bind to the protein surface, an AlphaScreen assay of H4 peptide binding to bromodomain-containing protein 4 (BRD4) was adopted (Fig. S2e). Since we are looking for compounds with anti-metastasis or anti-obesity activities, compounds with high levels of cytotoxicity are undesirable. […] Furthermore, potential DNA-binding compounds, i.e., DNA intercalators, minor groove binders, and DNA alkylating agents, can be identified by analyzing their chemical structures and will be excluded as well.
Using a Labcyte Echo 555 acoustic dispenser 5 nL of DMSO were added to columns 1–4 and 45–48 of a white 1536 well plate, while 5 nL of 2 mM compounds in DMSO were added to columns 5–44. Using a Beckman BioRAPTR FRD bulk reagent dispenser 1 µL of assay buffer (10 mM Tris, 300 mM NaCl and 0.005% Tween 20) was added to columns 1 and 2. Next, 1 µL of assay buffer containing 125 nM HMGA2 was added to columns 3–48 with a Beckman BioRAPTR FRD bulk reagent dispenser. Finally, 1 µL of assay buffer containing 25 nM FL814 was added to every well of the plate using a Beckman BioRAPTR FRD bulk reagent dispenser. The plate was then centrifuged at 200 × g for 1 min. After 30 min at room temperature 1 µL of assay buffer containing 250 nM LANCE Ultra ULight-anti-6xHIS and 1 µL of assay buffer containing 12 nM LANCE Eu-W1024 Streptavidin was dispensed into every well using a Beckman BioRAPTR FRD bulk reagent dispenser. The plates were then centrifuged at 200 × g for 1 min. After 1 h at room temperature the plates were read on a Perkin Elmer Envision multimode plate reader in TR-FRET mode (excitation @340 nm, first emission at @665 nm, second emission at 615 nm).

HMGA2-DNA interactions [3] = target: T1, HMGA2-DNA interactions; experiment: AlphaScreen primary uHTS assay of His-tagged HMGA2 binding to biotin-labeled DNA oligomer FL814; parameters: species or system mammalian
Method: To address these limitations, we established a new assay using AlphaScreen technology. The assay entails binding a biotin-labeled DNA oligomer FL814 and His-tagged HMGA2 to streptavidin-coated donor beads and nickel chelate (Ni-NTA) acceptor beads, respectively (Fig. 1). A series of DNA binding studies were performed to determine the optimal conditions for the AlphaScreen Primary Assay (Fig. S1a–d). […] These two inhibitors are readily available for purchase and served as positive controls for HMGA2-DNA interaction inhibition in the assay.
Using a Labcyte Echo 555 acoustic dispenser 5 nL of DMSO were added to columns 1–4 and 45–48 of a white 1536 well plate, while 5 nL of 2 mM compounds in DMSO were added to columns 5–44. Using a Beckman BioRAPTR FRD bulk reagent dispenser 1 µL of assay buffer (30 mM Citrate, 300 mM NaCl, and 0.005% Tween 20) was added to columns 1 and 2. Next 1 µL of assay buffer containing 125 nM HMGA2 was added to columns 3–48 with a Beckman BioRAPTR FRD bulk reagent dispenser. Finally, 1 µL of assay buffer containing 25 nM FL814 was added to every well of the plate using a Beckman BioRAPTR FRD bulk reagent dispenser. The plate was then centrifuged at 200 × g for 1 min. After 30 min at room temperature, 2 µL of bead buffer (10 mM HEPES, 300 mM NaCl and 0.005% Tween 20) containing 20 µg/mL anti-6xHIS acceptor beads and 20 µg/mL streptavidin donor beads were dispensed into every well using a Beckman BioRAPTR FRD bulk reagent dispenser. The plates were then centrifuged at 200 × g for 1 min. After 1 h at room temperature the plates were read on a Perkin Elmer Envision multimode plate reader in AlphaScreen mode.

BTSC#30p = experiment: Growth curves (CellTiter), BTSC#30p; format: cell-based; conditions: up to 200 μM
Method: BTSC#83 and BTSC#30p and their culture conditions have been described. For growth curves, suspension cultures were mechanically disaggregated and filtered through 37 µm filters (StemCell Technologies, Vancouver, Canada) in order to obtain bona fide single-cell suspension. […] Cell growth was assayed at the indicated time using the CellTiter Assay System (Promega). The growth conditions of 8505c anaplastic thyroid carcinoma cells and mouse Embryonic Fibroblasts (MEFs) knock-out for HMGA1, HMGA2, and HMGA1/A2 double mutant have been described previously[42],[64]. P values were calculated by using two-way ANOVA followed by Sidak’s multiple comparison test.

Cc1ccc(C(=O)Nc2ccc(S(=O)(=O)O)c3cc(S(=O)(=O)O)cc(S(=O)(=O)O)c23)cc1NC(=O)c1cccc(NC(=O)Nc2cccc(C(=O)Nc3cc(C(=O)Nc4ccc(S(=O)(=O)O)c5cc(S(=O)(=O)O)cc(S(=O)(=O)O)c45)ccc3C)c2)c1 [suramin]
mRNA expression level of ID2 [1]: significantly decreased | inhibition of HMGA2-DNA interactions (HMGA2-DNA interactions [2]): ≥ 50% | inhibition at 5 µM (HMGA2-DNA interactions [3]; LOPAC1280 screen, final concentration of 5 µM): ≥ 50% | inhibition of HMGA2-DNA interactions (in words) (HMGA2-DNA interactions [3]; confirmed hits that do not bind to DNA): strongly inhibit HMGA2-DNA interactions | IC50 (HMGA2-DNA interactions [3]; titration, HMGA2-FL814 interactions, Fig. 3a): 2.58 µM and 2.6 µM | cell growth (BTSC#30p): did not significantly affect the cell growth
